Results: patent US9018224B2, “Substituted cyclopropyl compounds useful as GPR119 agonists” (Merck Sharp & Dohme Corp., priority 2011, dated 2015)

Target: T1, human GPR119 (Homo sapiens, UniProt Q8TDV5)
T1 sequence (Q8TDV5 1-308 limits assumed): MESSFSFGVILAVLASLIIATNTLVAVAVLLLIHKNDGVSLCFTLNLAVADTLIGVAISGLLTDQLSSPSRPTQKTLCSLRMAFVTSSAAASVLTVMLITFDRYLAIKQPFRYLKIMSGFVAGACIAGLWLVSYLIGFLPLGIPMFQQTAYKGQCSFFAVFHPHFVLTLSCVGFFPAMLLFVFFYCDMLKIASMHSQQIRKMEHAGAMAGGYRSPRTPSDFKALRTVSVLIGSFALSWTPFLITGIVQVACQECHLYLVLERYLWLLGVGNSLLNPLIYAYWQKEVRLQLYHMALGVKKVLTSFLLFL
Assay: Measurement of GPR119 signaling by cAMP (LANCE cAMP kit or HTRF) in HEK293 cells transfected with human GPR119
Type: cell-based
Settings: agonist cAMP response in HEK293 cells stably transfected with human GPR119; patent does not say which of the two cAMP formats (LANCE or HTRF)
In short: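 LANCE TR-FRET cAMP readout; detection with Eu-SA/biotin-cAMP tracer for 3 h, signal converted to cAMP via standard curve, duplicates, 4-parameter fit vs DMSO basal and internal agonist maximum.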

Going from `COCc1cnc(N2CCC([C@H]3C[C@H]3CCOc3cc(F)c(CC(=O)N4CC(C(C)(C)O)C4)c(F)c3)CC2)nc1` [Example 222] to `COCc1cnc(N2CCC([C@H]3C[C@H]3CCOc3ccc(CC(=O)N4CC(O)C4)c(F)c3)CC2)nc1` [Example 42], the EC50 rises from 2 nM to 3.4 nM (1.7-fold).

`COCc1cnc(N2CCC([C@H]3C[C@H]3CCOc3ccc(CC(=O)N4CCOCC4)c(Cl)c3)CC2)nc1` [Example 32] and `COCc1cnc(N2CCC([C@H]3C[C@H]3CCOc3ccc(CC(=O)N4CCC4)c(F)c3)CC2)nc1` [Example 41, 1-(azetidin-1yl)-2-(2-fluoro-4-{2 [(1S,2R)-2-{1-[5-(methoxylmethyl)pyrimidin-2yl]piperidin-4-yl}cyclopropyl]ethoxyl}phenyl)ethanone] are within 1.5-fold of each other in EC50: 1.1 nM for the first, 0.77 nM for the second.

Going from `Cn1nc(C(F)(F)F)c2c1CN(C(=O)Cc1ccc(OCC[C@@H]3C[C@@H]3C3CCN(c4ncc(Cl)cn4)CC3)cc1F)CC2` [Example 189] to `CC1CN(C(=O)Cc2ccc(OCC[C@@H]3C[C@@H]3C3CCN(c4ncc(Cl)cn4)CC3)cc2F)Cc2nnc(C(F)(F)F)n21` (some centres unmarked) [Example 175], the EC50 falls from 6 nM to 1.1 nM (5.5-fold).

`CC1c2nc(C(F)(F)F)cn2CCN1C(=O)Cc1ccc(OCC[C@@H]2C[C@@H]2C2CCN(c3ncc(Cl)cn3)CC2)cc1F` (some centres unmarked) [Example 188] and `COC(=O)Cc1ccc(OCC[C@@H]2C[C@@H]2C2CCN(c3ncc(Cl)cn3)CC2)cc1F` [Example 61] are within 1.5-fold of each other in EC50: 0.55 nM for the first, 0.7 nM for the second.

Compared with `COc1cnc(N2CCC([C@H]3C[C@H]3CCOc3ccc(CC(=O)N4CCC4)c(F)c3)CC2)nc1` [Example 37], `COc1cnc(N2CCC([C@H]3C[C@H]3CCOc3ccc(CC(=O)N4CC(F)C4)c(F)c3)CC2)nc1` [Example 39] is 2-fold lower in EC50: 0.94 nM for the first, 0.48 nM for the second. The second is the more potent here.

Going from `CCOCc1cnc(N2CCC([C@H]3C[C@H]3CCOc3ccc(CC(=O)N4CC(O)C4)c(F)c3)CC2)nc1` [Example 199, 2-(4-{2-[(1S,2R)-2-{1-[5-(ethoxymethyl)pyrimidin-2-yl]piperidin-4-yl}cyclopropyl]ethoxy}-2-fluorophenyl)-1-(3-hydroxyazetidin-1-yl)ethanone] to `CCOCc1cnc(N2CCC([C@H]3C[C@H]3CCOc3ccc(CC(=O)N(C)C)c(F)c3)CC2)nc1` [Example 204], the EC50 falls from 1.9 nM to 1.2 nM (1.6-fold).

First: CC1(NC(=O)Cc2ccc(OCC[C@@H]3C[C@@H]3C3CCN(c4ncc(Cl)cn4)CC3)cc2F)CCCCC1 [Example 91]
Second: CC1(NC(=O)Cc2ccc(OCC[C@@H]3C[C@@H]3C3CCN(c4ncc(Cl)cn4)CC3)cc2F)CC1 [Example 93]
The EC50 of the first is 2.5-fold higher: 9.3 nM for the first, 3.7 nM for the second.

Compared with `CC1CCC(C)N1C(=O)Cc1ccc(OCC[C@@H]2C[C@@H]2C2CCN(c3ncc(Cl)cn3)CC2)cc1F` (some centres unmarked) [Example 90], `CCC(C)NC(=O)Cc1ccc(OCC[C@@H]2C[C@@H]2C2CCN(c3ncc(Cl)cn3)CC2)cc1F` (some centres unmarked) [Example 100] is 4-fold lower in EC50: 7.2 nM for the first, 1.8 nM for the second.

`Cc1cc(OCC[C@@H]2C[C@@H]2C2CCN(c3ncc(Cl)cn3)CC2)ccc1CC(=O)N1CCC1` [Example 15, 1-(azetidin-1-yl)-2-[4-(2-{(1S,2R)-2-[1-(5-chloropyrimidin-2-yl)piperidin-4-yl]cyclopropyl}ethoxy)-2-methylphenyl]ethanone] and `O=C(Cc1ccc(OCC[C@@H]2C[C@@H]2C2CCN(c3ncc(Cl)cn3)CC2)cc1)N1CC(F)C1` [Example 6] are within 1.5-fold of each other in EC50: 0.73 nM for the first, 0.89 nM for the second.

First: CN(C(=O)Cc1ccc(OCC[C@@H]2C[C@@H]2C2CCN(c3ncc(Cl)cn3)CC2)cc1F)C1CCOCC1 [Example 155]
Second: O=C(Cc1ccc(OCC[C@@H]2C[C@@H]2C2CCN(c3ncc(Cl)cn3)CC2)cc1F)N1CCCc2[nH]nc(C3CC3)c21 [Example 196]
The EC50 of the first is 4.2-fold lower: 1.3 nM for the first, 5.4 nM for the second. The first is the more potent here.
